Earlier results on two molecules are cited in US9255295B2, “Method for evaluating the sensitizing potential of a test compound” (IMMUNOSEARCH, priority 2010, dated 2016).

For this data set the following is noted: official classification: non-sensitizer, irritant, or sensitizing Extreme/Strong/Moderate/Weak; cited from earlier work.

As for `N#CCCC(Br)(C#N)CBr` (centres unmarked) [2-Bromo-2-(bromomethyl)glutaronitrile], the Class entry is recorded as “S”.

In the case of `O=CCCCC=O` [Glutaraldehyde], the Class entry was “S”.
